Reference: patent US9307766B2, “Isoxazoline derivatives as insecticidal compounds” (Syngenta Participations AG, priority 2011, dated 2016)

Columns and labels:
Format in all cases: in vivo
Spodoptera littoralis = Spodoptera littoralis (Egyptian cotton leafworm) leaf disc spray test; settings: foliar, 72 h, 200 ppm sprayed on cotton leaf discs, L1 larvae, mortality, feeding behavior, growth regulation 3 days after treatment
From the text: Spodoptera littoralis (Egyptian Cotton Leafworm):
Cotton leaf discs were placed on agar in a 24-well microtiter plate and sprayed with test solutions at an application rate of 200 ppm. After drying, the leaf discs were infested with 5 L1 larvae. The samples were checked for mortality, feeding behavior, and growth regulation 3 days after treatment (DAT).

Heliothis virescens = Heliothis virescens (tobacco budworm) egg test on artificial diet; settings: 96 h, 200 ppm (concentration in well 18 ppm) by pipetting, eggs 0-24 h old on artificial diet, egg mortality, larval mortality, growth regulation after 4 days
Description: Heliothis virescens (Tobacco Budworm):
Eggs (0-24 h old) were placed in 24-well microtiter plate on artificial diet and treated with test solutions at an application rate of 200 ppm (concentration in well 18 ppm) by pipetting. After an incubation period of 4 days, samples were checked for egg mortality, larval mortality, and growth regulation.

Plutella xylostella = Plutella xylostella (diamond back moth) artificial diet test; settings: 144 h, 200 ppm (concentration in well 18 ppm) on artificial diet, L2 larvae, larval mortality and growth regulation after 6 days
Description: Plutella xylostella (Diamond Back Moth):
24-well microtiter plate (MTP) with artificial diet was treated with test solutions at an application rate of 200 ppm (concentration in well 18 ppm) by pipetting. After drying, the MTP's were infested with L2 larvae (7-12 per well). After an incubation period of 6 days, samples were checked for larval mortality and growth regulation.

Diabrotica balteata = Diabrotica balteata (corn root worm) artificial diet test; settings: 120 h, 200 ppm (concentration in well 18 ppm) on artificial diet, L2 larvae, larval mortality and growth regulation after 5 days
Description: Diabrotica balteata (Corn Root Worm):
A 24-well microtiter plate (MTP) with artificial diet was treated with test solutions at an application rate of 200 ppm (concentration in well 18 ppm) by pipetting. After drying, the MTP's were infested with L2 larvae (6-10 per well). After an incubation period of 5 days, samples were checked for larval mortality and growth regulation.

Thrips tabaci = Thrips tabaci (onion thrips) leaf disc spray test; settings: foliar, 168 h, 200 ppm sprayed on sunflower leaf discs, thrip population of mixed ages, mortality after 7 days
Description: Thrips tabaci (Onion Thrips):
Sunflower leaf discs were placed on agar in a 24-well microtiter plate and sprayed with test solutions at an application rate of 200 ppm. After drying, the leaf discs were infested with a thrip population of mixed ages. After an incubation period of 7 days, samples were checked for mortality.

Tetranychus urticae = Tetranychus urticae (two-spotted spider mite) leaf disc spray test; settings: foliar, 192 h, 200 ppm sprayed on bean leaf discs, mite populations of mixed ages, egg, larval and adult mortality 8 days later
From the text: Tetranychus urticae (Two-Spotted Spider Mite):
Bean leaf discs on agar in 24-well microtiter plates were sprayed with test solutions at an application rate of 200 ppm. After drying, the leaf discs are infested with mite populations of mixed ages. 8 days later, discs are checked for egg mortality, larval mortality, and adult mortality.

Measured: pest or weed control at 200 ppm

O=C(NC1CSC1)c1ccc(C2=NOC(c3cc(Cl)cc(Cl)c3)(C(F)(F)F)C2)c2cccnc12 (stereo not drawn) [Compound D12, 5-[5-(3,5-dichlorophenyl)-5-(trifluoromethyl)-4H-isoxazol-3-yl]-N-(thietan-3-yl)quinoline-8-carboxamide]
≥ 80%: all assays above

O=C(NC1CSC1)c1cnc(C2=NOC(c3cc(Cl)cc(Cl)c3)(C(F)(F)F)C2)c2ccccc12 (stereo not drawn) [Compound D15, 1-[5-(3,5-dichlorophenyl)-5-(trifluoromethyl)-4H-isoxazol-3-yl]-N-(thietan-3-yl)isoquinoline-4-carboxamide]
≥ 80%: all assays above

O=C(NC1C[S+]([O-])C1)c1cnc(C2=NOC(c3cc(Cl)cc(Cl)c3)(C(F)(F)F)C2)c2ccccc12 (stereo not drawn) [Compound D16, 1-[5-(3,5-dichlorophenyl)-5-(trifluoromethyl)-4H-isoxazol-3-yl]-N-(1-oxothietan-3-yl)isoquinoline-4-carboxamide]
≥ 80%: all assays above
